Measurements as given in patent US20250154127A1, “BICYCLIC HETEROARYL COMPOUNDS AND USES THEREOF” (ETERN BIOPHARMA (SHANGHAI) CO., LTD., priority 2022, published 2025).

How the values were obtained:
MSTO-211H cells = assay: Proliferation Assay (CellTiter-Glo Luminescent Cell Viability Assay); type: cell-based; conditions: Homo sapiens, 96 hours treatment
Protocol: Example 5: Proliferation Assay
The effect of compound on YAP driven cancer cells proliferation was assessed in MSTO-211H (ATCC, CRL-2081TM) or NCI-H2052 (ATCC, CRL-5915TM) cells using CellTiter-Glo Luminescent Cell Viability Assay (Promega, G7570).
Briefly, individual cell lines were seeded in 96-well cell culture plate at the density of 1,500 cells per well and cultured in RPMII1640 (Gibco-A10491-01)+10% FBS (Gibco-10099-141C)+1% Penicillin-Streptomycin (5,000 U/mL, Gibco-15070-063) overnight at 37° C. with 5% CO2 before adding the compounds.
Following incubation, serial dilutions of compounds dissolved in DMSO were added to each well (3-fold dilution with 9 concentration points). The final concentration of DMSO present in this assay is below 0.5% and make duplication for each compound treated well.
Following 96 hours treatment, compound mediated cell growth inhibition was measured using CellTiter-Go Luminescent Cell Viability Assay (Promega, G7570). […] CellTiter-Glo in each assay well, mix and incubate at room temperature for 10 min. Read signal using EnVision® Multilabel Plate Reader (Perkin Elmer).
For data analysis, cell proliferation inhibition was calculated using the following formula:
Inhibition %=(1−(Compound treated well CTG signal/DMSO well CTG signal))*100.
IC50 values were calculated using GraphPad Prism software using a four-parameter fit model.

[1] = biological target: TEAD1(210-426) binding to YAP(50-100) (Homo sapiens, UniProt P28347); assay: TR-FRET Assay for TEAD1(210-426) Binding to YAP(50-100); conditions: His-TEAD 10 nM, YAP-Biotin peptide 50 nM
Sequence of TEAD1(210-426) binding to YAP(50-100) (P28347 209-426): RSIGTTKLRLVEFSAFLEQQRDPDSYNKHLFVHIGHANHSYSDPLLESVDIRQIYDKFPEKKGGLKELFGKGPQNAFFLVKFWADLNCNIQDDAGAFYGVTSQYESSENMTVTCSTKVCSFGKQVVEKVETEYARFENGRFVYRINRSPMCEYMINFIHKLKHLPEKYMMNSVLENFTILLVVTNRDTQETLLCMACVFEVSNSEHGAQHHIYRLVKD
Protocol: Compounds were performed 3 fold serial dilution, 12 data points, added to 384 well white plate. The final DMSO concentration is 1%, duplicate for each concentration. Then His-TEAD protein was added to a final concentration of 10 nM, and allowed to preincubate for 30 minutes at room temperature. Assay buffer was added as background control.
YAP-Biotin peptide was added to a final concentration of 50 nM, mixed well, incubate 10 minutes at room temperature. The YAP(50-100) peptide sequence used here is named SEQ ID NO: 2
The Europium-labeled anti-6×His antibody and APC labeled streptavidin were diluted according to the instructions, this detection solution was mixed 1:1 with reaction solution, incubated 1 hour at room temperature.
TR-FRET measurements were made on an Envision (Perkin Elmer), using an excitation wavelength of 320 nm and emissions read at 620 nm and 665 nm. The ratio of the 665 nm to the 620 nm multiply 10000 provides a normalized TR-FRET signal that represents the extent of binding.
Half inhibition concentration IC50 value was calculated by XLfit software.

IC50 [1] [nM]	Compound	IC50 (MSTO-211H cells) [nM]
≤ 100	O=c1cc(-n2nc(-c3ccc(C(F)(F)F)cc3)c3nccnc32)ccn1Cc1ccnc(NCCO)n1 [Compound 50, 1-((2-((2-hydroxyethyl)amino)pyrimidin-4-yl)methyl)-4-(3-(4-(trifluoromethyl)phenyl)-1H-pyrazolo[3,4-b]pyrazin-1-yl)pyridin-2(1H)-one]	≤ 1000
≤ 100	CNc1nccc(Cn2ccc(-n3nc(-c4ccc(C(F)(F)F)cc4)c4nccnc43)cc2=O)n1 [Compound 51, 1-((2-(methylamino)pyrimidin-4-yl)methyl)-4-(3-(4-(trifluoromethyl)phenyl)-1H-pyrazolo[3,4-b]pyrazin-1-yl)pyridin-2(1H)-one]	≤ 1000
≤ 100	CN(CCO)c1nccc(Cn2ccc(-n3nc(-c4ccc(C(F)(F)F)cc4)c4nccnc43)cc2=O)n1 [Compound 52, 1-((2-((2-hydroxyethyl)(methyl)amino)pyrimidin-4-yl)methyl)-4-(3-(4-(trifluoromethyl)phenyl)-1H-pyrazolo[3,4-b]pyrazin-1-yl)pyridin-2(1H)-one]	≤ 1000
≤ 100	CNc1ccnc(Cn2ccc(-c3nn(-c4ccc(C(F)(F)F)cc4)c4cc(F)ccc34)cc2=O)n1 [Compound 53, 4-(6-fluoro-1-(4-(trifluoromethyl)phenyl)-1H-indazol-3-yl)-1-((4-(methylamino)pyrimidin-2-yl)methyl)pyridin-2(1H)-one]	≤ 1000
≤ 100	CNc1ccnc(Cn2ccc(-c3nn(-c4ccc(C(F)(F)F)cc4)c4ccc(F)cc34)cc2=O)n1 [Compound 54, 4-(5-fluoro-1-(4-(trifluoromethyl)phenyl)-1H-indazol-3-yl)-1-((4-(methylamino)pyrimidin-2-yl)methyl)pyridin-2(1H)-one]	≤ 1000
≤ 100	O=c1cc(-c2nn(-c3ccc(C(F)(F)F)cc3)c3ccccc23)ccn1Cc1nccc(N2CC[C@H](O)C2)n1 [Compound 55, (S)-1-((4-(3-hydroxypyrrolidin-1-yl)pyrimidin-2-yl)methyl)-4-(1-(4-(trifluoromethyl)phenyl)-1H-indazol-3-yl)pyridin-2(1H)-one]	≤ 1000
≤ 100	O=c1cc(-n2nc(-c3ccc(C(F)(F)F)cc3)c3ncccc32)ccn1Cc1ccnc(OCCO)n1 [Compound 56, 1-((2-(2-hydroxyethoxy)pyrimidin-4-yl)methyl)-4-(3-(4-(trifluoromethyl)phenyl)-1H-pyrazolo[4,3-b]pyridin-1-yl)pyridin-2(1H)-one]	≤ 1000
≤ 100	CNc1nccc(Cn2ccc(-c3nn(-c4ccc(C(F)(F)F)cc4C)c4ncccc34)cc2=O)n1 [Compound 57]	≤ 1000
≤ 100	CNc1nccc(Cn2ccc(-c3nn(-c4ccc(F)cc4)c4ncccc34)cc2=O)n1 [Compound 58, 4-(1-(4-fluorophenyl)-1H-pyrazolo[3,4-b]pyridin-3-yl)-1-((2-(methylamino)pyrimidin-4-yl)methyl) pyridin-2(1H)-one]	≤ 1000
≤ 100	CNc1nccc(Cn2ccc(-c3nn(-c4ccc(OC(F)(F)F)cc4)c4ncccc34)cc2=O)n1 [Compound 59, 1-((2-(methylamino)pyrimidin-4-yl)methyl)-4-(1-(4-(trifluoromethoxy)phenyl)-1H-pyrazolo[3,4-b]pyridin-3-yl) pyridin-2(1H)-one]	≤ 1000
≤ 100	Nc1cccc(Cn2ccc(-c3nn(-c4ccc(C(F)(F)F)cc4)c4ccccc34)cc2=O)n1 [Compound 60, 1-((6-aminopyridin-2-yl)methyl)-4-(1-(4-(trifluoromethyl)phenyl)-1H-indazol-3-yl)pyridin-2(1H)-one]	≤ 1000
≤ 100	Nc1nccc(Cn2ccc(-c3nn(-c4ccc(C(F)(F)F)cc4)c4ccccc34)cc2=O)n1 [Compound 61, 1-((2-aminopyrimidin-4-yl)methyl)-4-(1-(4-(trifluoromethyl)phenyl)-1H-indazol-3-yl)pyridin-2(1H)-one]	≤ 1000
≤ 100	O=c1cc(-c2nn(-c3ccc(C(F)(F)F)cc3)c3ccccc23)ccn1Cc1cccnn1 [Compound 62, 1-(pyridazin-3-ylmethyl)-4-(1-(4-(trifluoromethyl)phenyl)-1H-indazol-3-yl)pyridin-2(1H)-one]	≤ 1000
≤ 100	O=c1cc(-c2nn(-c3ccc(C(F)(F)F)cc3)c3ccccc23)ccn1Cc1cnccn1 [Compound 63, 1-(pyrazin-2-ylmethyl)-4-(1-(4-(trifluoromethyl)phenyl)-1H-indazol-3-yl)pyridin-2(1H)-one]	≤ 1000
≤ 100	Cn1ccc(Cn2ccc(-c3cn(-c4ccc(C(F)(F)F)cc4)c4ncccc34)cc2=O)n1 [Compound 64, 1-((1-methyl-1H-pyrazol-3-yl)methyl)-4-(1-(4-(trifluoromethyl)phenyl)-1H-pyrrolo[2,3-b]pyridin-3-yl)pyridin-2(1H)-one]	≤ 1000
≤ 100	Nc1cncc(Cn2ccc(-c3nn(-c4ccc(C(F)(F)F)cc4)c4ccccc34)cc2=O)n1 [Compound 65, 1-((6-aminopyrazin-2-yl)methyl)-4-(1-(4-(trifluoromethyl)phenyl)-1H-indazol-3-yl)pyridin-2(1H)-one]	≤ 1000
≤ 100	CN(C)c1nccc(Cn2ccc(-c3nn(-c4ccc(C(F)(F)F)cc4)c4ccccc34)cc2=O)n1 [Compound 66, 1-((2-(dimethylamino)pyrimidin-4-yl)methyl)-4-(1-(4-(trifluoromethyl)phenyl)-1H-indazol-3-yl)pyridin-2(1H)-one]	≤ 1000
≤ 100	CNc1nccc(Cn2ccc(-c3nn(-c4ccc(C(F)(F)F)cc4)c4ccccc34)cc2=O)c1F [Compound 67, 1-((3-fluoro-2-(methylamino)pyridin-4-yl)methyl)-4-(1-(4-(trifluoromethyl)phenyl)-1H-indazol-3-yl)pyridin-2(1H)-one]	≤ 1000
≤ 100	COc1ccnc(Cn2ccc(-c3nn(-c4ccc(C(F)(F)F)cc4)c4ccccc34)cc2=O)n1 [Compound 68, 1-((4-methoxypyrimidin-2-yl)methyl)-4-(1-(4-(trifluoromethyl)phenyl)-1H-indazol-3-yl)pyridin-2(1H)-one]	≤ 1000
≤ 100	CNc1ccnc(Cn2ccc(-c3nn(-c4ccc(C(F)(F)F)cc4)c4ccccc34)cc2=O)n1 [Compound 69, 1-((4-(methylamino)pyrimidin-2-yl)methyl)-4-(1-(4-(trifluoromethyl)phenyl)-1H-indazol-3-yl)pyridin-2(1H)-one]	≤ 1000
≤ 100	CNc1ccnc(Cn2ccc(-c3nn(-c4ccc(C(F)(F)F)cc4)c4ncccc34)cc2=O)n1 [Compound 70, 1-((4-(methylamino)pyrimidin-2-yl)methyl)-4-(1-(4-(trifluoromethyl)phenyl)-1H-pyrazolo[3,4-b]pyridin-3-yl)pyridin-2(1H)-one]	≤ 1000
≤ 100	O=c1cc(-c2nn(-c3ccc(C(F)(F)F)cc3)c3ccccc23)ccn1Cc1nccc(O)n1 [Compound 71]	≤ 1000
≤ 100	CN(CCO)c1nccc(Cn2ccc(-c3nn(-c4ccc(C(F)(F)F)cc4)c4ncccc34)cc2=O)n1 [Compound 72]	≤ 1000
≤ 100	O=c1cc(-c2nn(-c3ccc(C(F)(F)F)cc3)c3ncccc23)ccn1Cc1ccnc(NCCO)n1 [Compound 73, 1-((2-((2-hydroxyethyl)amino)pyrimidin-4-yl)methyl)-4-(1-(4-(trifluoromethyl)phenyl)-1H-pyrazolo[3,4-b]pyridin-3-yl)pyridin-2(1H)-one]	≤ 1000
≤ 100	O=c1cc(-c2nn(-c3ccc(C(F)(F)F)cc3)c3ncccc23)ccn1Cc1ccn(CCO)n1 [Compound 74, 1-((1-(2-hydroxyethyl)-1H-pyrazol-3-yl)methyl)-4-(1-(4-(trifluoromethyl)phenyl)-1H-pyrazolo[3,4-b]pyridin-3-yl)pyridin-2(1H)-one]	≤ 1000
≤ 100	CN(CCO)c1ccnc(Cn2ccc(-c3nn(-c4ccc(C(F)(F)F)cc4)c4ncccc34)cc2=O)n1 [Compound 75, 1-((4-((2-hydroxyethyl)(methyl)amino)pyrimidin-2-yl)methyl)-4-(1-(4-(trifluoromethyl)phenyl)-1H-pyrazolo[3,4-b]pyridin-3-yl)pyridin-2(1H)-one]	≤ 1000
